Reference: patent US7265131B2, “Isoquinolinone derivatives and their use as therapeutic agents” (Exelixis, Inc., priority 2002, dated 2007)

Biological target: T1, LXR β (Homo sapiens, UniProt P55055)
T1 construct: comprising full-length LXR α (pCMX-hLXR α), LXR β (pCMX-hLXR β), or RXR α (pCMX-RXR); expressed in transfected cells; host or cells: CV-1 African Green Monkey kidney cells, transient transfection
T1 sequence (P55055 1-460): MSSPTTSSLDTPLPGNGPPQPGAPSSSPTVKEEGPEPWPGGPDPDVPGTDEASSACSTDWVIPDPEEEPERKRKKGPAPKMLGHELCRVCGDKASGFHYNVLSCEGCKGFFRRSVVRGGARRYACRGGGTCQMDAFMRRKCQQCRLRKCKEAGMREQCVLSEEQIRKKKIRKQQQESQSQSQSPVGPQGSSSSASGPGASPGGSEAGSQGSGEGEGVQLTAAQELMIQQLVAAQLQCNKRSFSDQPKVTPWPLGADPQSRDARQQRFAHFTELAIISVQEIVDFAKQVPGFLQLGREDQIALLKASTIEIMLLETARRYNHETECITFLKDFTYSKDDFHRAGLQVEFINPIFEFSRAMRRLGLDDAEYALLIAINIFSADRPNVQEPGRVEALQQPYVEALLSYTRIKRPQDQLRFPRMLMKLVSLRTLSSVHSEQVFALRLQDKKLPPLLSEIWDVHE
T1 sequence (P19793 1-462 partner): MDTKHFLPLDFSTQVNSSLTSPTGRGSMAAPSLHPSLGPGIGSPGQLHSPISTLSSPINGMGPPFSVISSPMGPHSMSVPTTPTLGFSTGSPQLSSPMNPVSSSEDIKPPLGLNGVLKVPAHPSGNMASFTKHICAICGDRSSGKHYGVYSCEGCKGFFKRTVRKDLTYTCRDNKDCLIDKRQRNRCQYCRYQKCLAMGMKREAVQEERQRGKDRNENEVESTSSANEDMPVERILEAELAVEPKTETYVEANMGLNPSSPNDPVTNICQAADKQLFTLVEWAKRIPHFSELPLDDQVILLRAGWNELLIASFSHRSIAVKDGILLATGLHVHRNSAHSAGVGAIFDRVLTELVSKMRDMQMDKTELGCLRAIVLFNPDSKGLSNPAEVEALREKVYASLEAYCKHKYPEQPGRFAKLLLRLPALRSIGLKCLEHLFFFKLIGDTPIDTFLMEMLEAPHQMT
Experiment: LXR/LXRE co-transfection assay (luciferase reporter, CV-1 cells)
Format: cell-based
Conditions: for Emax: CV-1, average percent efficacy, relative to control N-(3-((4-fluorophenyl)-(naphthalene-2-sulfonyl)amino)propyl)-2,2-dimethylpropionamide, read-out: % Eff(b); for EC50: average EC50 for agonism, cotransfection assay, CV-1 cells
Text: To measure the ability of compounds to activate or inhibit the transcriptional activity of LXR in a cell based assay, the co-transfection assay was used. It has been shown that LXR functions as a heterodimer with RXR. For the co-transfection assay, expression plasmids for LXR and RXR are introduced via transient transfection into mammalian cells along with a luciferase reporter plasmid that contains one copy of a DNA sequence that is bound by LXR-RXR heterodimers (LXRE; Willy, P. et al. 1995). Treatment of transfected cells with an LXR agonist increases the transcriptional activity of LXR, which is measured by an increase in luciferase activity.
1. CV-1 African Green Monkey Kidney Cells
2. Co-transfection expression plasmids, comprising full-length LXR α (pCMX-hLXR α), LXR β (pCMX-hLXR β), or RXR α (pCMX-RXR), reporter plasmid (LXREx1-Tk-Luciferase), and control (pCMX-Galactosidase expression vector) (Willey et al. Genes & Development 9 1033-1045 (1995)).
CV-1 cells were prepared 24 hours prior to the experiment by plating them into T-175 flasks or 500 cm^2 dishes in order to achieve 70-80% confluency on the day of the transfection. The number of cells to be transfected was determined by the number of plates to be screened. Each 384 well plate requires 1.92×10^6 cells or 5000 cells per well. DNA Transfection Reagent was prepared by mixing the required plasmid DNAs with a cationic lipid transfection reagent FuGENE6 (Roche) by following the instructions provided with the reagents. Optimal DNA amounts were determined empirically per cell line and size of vessel to be transfected. 10-12 mL of media was added to the DNA Transfection Reagent and this mixture was added to the cells after aspirating media from the T175 cm^2 flask. Cells were then incubated at least 5 hours at 37° C. to prepare screening cells.
Luciferase assay reagent was prepared by combining before use (per 10 mL):
Assay plates were prepared by dispensing 5 μL of compound per well of a 384 well plate to achieve final compound concentration of 10 μM and no more than 1% DMSO. Media was removed from the screening cells, the cells trypsinized, harvested cells by centrifugation, counted, and plated at a density of approximately 5000 cells per well in the 384 well assay plate prepared above in a volume of about 45 μL. Assay plates containing both compounds and screening cells (50 μL in total volume) were incubated for 20 hours at 37° C.
After incubation with compounds, media was removed from the cells and lysis buffer (30 μuL/well) added. After 30 minutes at ambient temperature, luciferase assay buffer (30 μL/well) was added and the assay plates read on a luminometer (PE Biosystems Northstar reader with on-board injectors, or equivalent). Plates were read immediately after addition of luciferase assay buffer.
The LXR/LXRE co-transfection assay can be used to establish the EC50/IC50 values for potency and percent activity or inhibition for efficacy. Efficacy defines the activity of a compound relative to a high control ((N-(3-((4-fluorophenyl)-(naphthalene-2-sulfonyl)amino)propyl)-2,2-dimethylpropionamide)) or a low control (DMSO/vehicle). The dose response curves are generated from an 8 point curve with concentrations differing by ½ LOG units. Each point represents the average of 4 wells of data from a 384 well plate.
The data from this assay is fitted to the following equation, from the EC50 value may be solved: Y=Bottom+(Top-Bottom)/(1+10^((logEC50-X*HillSlope))
The EC50/IC50 is therefore defined as the concentration at which an agonist or antagonist elicits a response that is half way between the Top (maximum) and Bottom (baseline) values. The EC50/IC50 values represented are the averages of at least 3 independent experiments. […]

| SMILES | Emax [%] | EC50 [nM] |
| --- | --- | --- |
| Cc1ccc(Cn2c(C#CC(C)(C)O)cc3ccccc3c2=O)c(C)c1 [2-(2,4-dimethylbenzyl)-3-(3-hydroxy-3-methylbut-1-ynyl)-2H-isoquinolin-1-one] | 40 to 90 | > 500 |
| Cc1ccc(Cn2c(-c3ccc(Oc4ccccc4)cc3)cc3ccccc3c2=O)c(C)c1 [2-(2,4-dimethylbenzyl)-3-(4-phenoxyphenyl)-2H-isoquinolin-1-one] | > 90 | 10 to 150 |
| Cc1cccc(-c2cc3ccccc3c(=O)n2Cc2ccc(C)cc2C)c1 [2-(2,4-dimethylbenzyl)-3-m-tolyl-2H-isoquinolin-1-one] | 40 to 90 | > 500 |
| Cc1ccc(Cn2c(-c3ccsc3)cc3ccccc3c2=O)c(C)c1 [2-(2,4-dimethylbenzyl)-3-thiophen-3-yl-2H-isoquinolin-1-one] | 40 to 90 | > 500 |
| Cc1cccc(-c2cc3ccccc3c(=O)n2Cc2ccccc2)c1 [2-benzyl-3-m-tolyl-2H-isoquinolin-1-one] | 40 to 90 | > 500 |
| O=c1c2c(Cl)cccc2cc(-c2cc(-c3cc(C(F)(F)F)cc(C(F)(F)F)c3)co2)n1Cc1ccc(F)cc1F [3-[4-(3,5-bis-trifluoromethylphenyl)furan-2-yl]-8-chloro-2-(2,4-difluorobenzyl)-2H-isoquinolin-1-one] | > 90 | 10 to 150 |
| Nc1ccc(-c2coc(-c3cc4cccc(Cl)c4c(=O)n3Cc3ccc(F)cc3F)c2)cc1C(F)(F)F [3-[4-(4-amino-3-trifluoromethylphenyl)furan-2-yl]-8-chloro-2-(2,4-difluorobenzyl)-2H-isoquinolin-1-one] | > 90 | 10 to 150 |
| O=c1c2c(Cl)cccc2cc(-c2ccc(Oc3ccccc3)cc2)n1Cc1ccc(F)cc1F [8-chloro-2-(2,4-difluorobenzyl)-3-(4-phenoxyphenyl)-2H-isoquinolin-1-one] | > 90 | 10 to 150 |
| O=c1c2c(Cl)cccc2cc(-c2ccc(Oc3cnccn3)cc2)n1Cc1ccc(F)cc1F [8-chloro-2-(2,4-difluorobenzyl)-3-[4-(pyrazin-2-yloxy)phenyl]-2H-isoquinolin-1-one] | > 90 | 10 to 150 |
| CS(=O)(=O)c1ccc(-c2ccc(-c3cc4cccc(Cl)c4c(=O)n3Cc3ccc(F)cc3F)s2)cc1 [8-chloro-2-(2,4-difluorobenzyl)-3-[5-(4-methanesulfonylphenyl)thiophen-2-yl]-2H-isoquinolin-1-one] | > 90 | < 10 |
| O=c1c2c(Cl)cccc2cc(-c2ccc(Oc3ccccc3)cc2)n1CC1CCCCC1 [8-chloro-2-cyclohexylmethyl-3-(4-phenoxyphenyl)-2H-isoquinolin-1-one] | > 90 | 150 to 500 |
| O=c1c2c(Cl)cccc2cc(-c2ccc(Oc3ccccc3)cc2)n1Cc1cccs1 [8-chloro-3-(4-phenoxyphenyl)-2-thiophen-2-ylmethyl-2H-isoquinolin-1-one] | > 90 | 150 to 500 |
| CCOc1ccc(-c2csc(-c3cc4cccc(Cl)c4c(=O)n3Cc3ccc(F)cc3F)c2)cc1Cl [8-chloro-3-[4-(3-chloro-4-ethoxyphenyl)thiophen-2-yl]-2-(2,4-difluorobenzyl)-2H-isoquinolin-1-one] | > 90 | 10 to 150 |
| Cc1ccc(Cn2c(-c3ccc(Oc4ccccc4)cc3)cc3cccc(C)c3c2=O)cc1 [8-methyl-2-(4-methylbenzyl)-3-(4-phenoxyphenyl)-2H-isoquinolin-1-one] | 40 to 90 | 10 to 150 |
